In paper PMC11882074, “Identification of antimicrobial peptides from the Ambystoma mexicanum displaying antibacterial and antitumor activity” (PLOS One, 2025):
Residues, ends and D or L forms follow the SMILES beside them.

Columns and labels:
[1] = system: MRSA, ATCC# 43300; assay type: cell-based, Staphylococcus aureus
Description: (§1) MIC assays (MRSA, ATCC# 43300/ MSSA, ATCC# 6538) were performed according to CLSI guidelines. […] Thereafter, samples were treated with peptide concentrations ranging from 10, 5, 2.5, 2, 1.75, 1.5 1.25, 1, 0,85, 0.625 and 0.313 µg/mL. Human antimicrobial peptide LL-37 was utilized as a positive control at a concentration of 256 μg/mL, as it is one of the best-known examples of AMP-based drug development. The assay was performed in triplicates. Efficacy was assessed according to the viable bacterial load determined by dilution plating and counting of Colony Forming Units (CFU). The lowest concentration that inhibited bacterial growth after 24 h of incubation is the MIC. Growth curve were performed using a plate reader (Synergy 2, Biotek).

[2] = system: methicillin-resistant Staphylococcus aureus; conditions: no reference given, cited from earlier work
Description: We evaluated the antimicrobial activity of the synthesized peptides by assessing their MIC against Meticillin-Sensitive Staphylococcus aureus and Methicillin-resistant Staphylococcus aureus (MSSA and MRSA). […] The MIC of vancomycin of 2 µg/mL was used as ... || The skin mucus-derived AMPs were initially characterized, and 22 candidate peptides were identified and ranked based on their likelihood of having antibacterial activities (Table 1, Supl. 2).

[3] = system: T-47D mammary carcinoma cells; test: Apoptosis assay (Apo-ONE Homogeneous Caspase-3/7) in T-47D cells; assay type: cell-based, human; conditions: for apoptotic activity compared to the control in T-47D cells: 1 µg/ml peptide; for apoptotic activity compared to the control in T-47D cells / caspase-3/7 activity (apoptotic induction) in T-47D cells: 24 h stimulation, fluorescence (RFU); for caspase-3/7 activity (apoptotic induction) in T-47D cells: 10 µg/ml peptide; for apoptosis in cancerous breast tissue cells (T-47D): all concentrations tested (1µg, 5µg, and 10µg), 24 h, compared with MCF10A, t-test
[4] = system: T-47D mammary carcinoma cells; test: Gene expression analysis, Human Breast Cancer RT2 Profiler PCR array; assay type: cell-based; conditions: 10 µg/mL peptide, 24 h, ΔΔCt vs unstimulated control, fold change above 2
Description: Three 75 cm^2 cell culture flasks containing the T-47D and three 75 cm^2 cell culture flasks containing the MCF10A cells were individually stimulated with peptides 1, 12, or 13 at a concentration of 10 µg/mL. An unstimulated cell culture flask was left as a control. Cells were incubated for 24 hours according to standard protocol at 37°C and 5% CO2, in a humidified atmosphere.
After 24 hours, the cells were detached, and RNA was isolated according to the Macherey-Nagel kit. RNA quality was assessed using a NanoDrop 1000 spectrophotometer and gel electrophoresis. To create cDNA the iScript cDNA Synthesis Kit (BioRad) was used and followed according to manufacturer’s instructions. For gene expression analysis, the Human Breast Cancer RT2 Profiler PCR array was used (Qiagen) according to manufacturer’s instructions. On this plate, forward and reverse primers were already included in each well for the respective genes. The qPCR cycling conditions were as follows: 8.5 min at 95°C, […] at 55°C, […] at 72°C and 4°C as holding temperature. Housekeeping gene stability was validated, and results were geometrically averaged. Beta (β)-actin was used for endogenous controls. Expression of carcinogenic markers was quantified relative by the ΔΔCt method and results were normalized to housekeeping genes (Livak and Schmittgen, 2001). The Ct values of the untreated samples were set to zero. The Ct values of the MCF10A samples were subtracted from the Ct values of the T-47D samples. Relative gene expression was calculated from the zero line using Microsoft Excel Version 2016 software (Microsoft Cooperation, Redmond, WA, USA). The resulting higher or lower expressions of the analyzed genes were presented. Gene expression was measured using the BioRad i-Cycler.

[5] = system: MSSA, ATCC# 6538; test: MIC assay according to CLSI guidelines against MSSA; assay type: cell-based, Staphylococcus aureus; conditions: 24 h, 37°C; peptides listed in order of lowest to highest MIC; Fig 2A
Description: as §1

Row | Compound | MIC against methicillin-resistant Staphylococcus aureus (MRSA) ([1]; ATCC# 43300, 24 h) [µg/mL] | MIC of vancomycin used as threshold for identifying inhibitory effects ([2]; threshold for MRSA and MSSA in Fig 2A) [µg/mL] | MIC values reported against similar MRSA strains ([2]; typical reported range) [µg/mL] | apoptotic activity compared to the control in T-47D cells [3] | caspase-3/7 activity (apoptotic induction) in T-47D cells [3] | apoptosis in cancerous breast tissue cells (T-47D) [3] | inhibitory effect against MRSA (MIC relative to vancomycin threshold of 2 µg/mL) ([1]; 24 h, 37°C, peptides listed in order of lowest to highest MIC, Fig 2A) | genes with significant decrease in expression [4] | genes with significant increase in expression [4] | inhibitory effect against MSSA (MIC relative to vancomycin threshold of 2 µg/mL) [5]
1 | CC[C@H](C)[C@H](NC(=O)CNC(=O)CNC(=O)[C@H](CO)NC(=O)[C@H](C)NC(=O)CNC(=O)[C@H](CC(C)C)NC(=O)[C@@H](NC(=O)[C@H](C)NC(=O)[C@@H](N)C(C)C)C(C)C)C(=O)NCC(=O)N[C@@H](CCC(N)=O)C(=O)N1CCC[C@H]1C(=O)N[C@@H](CC(C)C)C(=O)N[C@@H](CO)C(=O)N[C@@H](CC(C)C)C(=O)N[C@@H](CC(C)C)C(=O)N[C@@H](CC(C)C)C(=O)N[C@@H](CCCCN)C(=O)O [Peptide 1] (H-VAVLGASGGIGQPLSLLLK-OH) | 2 |  |  |  |  |  |  |  |  | 
2 | CN[C@H](CC(C)C)C(=O)N[C@H]1C(=O)N[C@@H](CC(N)=O)C(=O)N[C@H]2C(=O)N[C@H]3C(=O)N[C@H](C(=O)N[C@H](C(=O)O)c4cc(O)cc(O)c4-c4cc3ccc4O)[C@H](O)c3ccc(c(Cl)c3)Oc3cc2cc(c3O[C@@H]2O[C@H](CO)[C@@H](O)[C@H](O)[C@H]2O[C@H]2C[C@](C)(N)[C@H](O)[C@H](C)O2)Oc2ccc(cc2Cl)[C@H]1O [vancomycin] |  | 2 | 0.5 to 2 |  |  |  |  |  |  | 
3 | FGANALLGVSLAVcKAGAAEK [Peptide 13, synthetic analog of axolotl skin mucus AMP, rank 13] |  |  |  | less distinct | highest levels of caspase-3/7 activity | significantly increased apoptosis | inhibitory effect | IL6 and MMP2 | BRCA1, BRCA2, NR3C1, SERPINE1, and XBP1 | Inhibitory effects
4 | ILLLcVGEAGDTVQFAEYIQK [Peptide 12, synthetic analog of axolotl skin mucus AMP, rank 12] |  |  |  | increased apoptotic activity compared to the control | highest levels of caspase-3/7 activity | significantly increased apoptosis |  | CCND2, EGF, GLI1, KRT5, MMP2, and SERPINE1 | BRCA1, JUN, NR3C1, RB1, SFN, and XBP1 | 
